≈ marks a conversion by molar mass, not a printed value.
Assays:
[1] = test system: Methicilin resistant Staphylococcus aureus 32 (MRSA 32); assay: Minimum Inhibitory Concentration (MIC) determination, agar dilution; assay type: cell-based; conditions: Mueller Hinton agar, 24 hrs at 35° C.
Procedure: (§1) Overnight grown cultures of Methicilin resistant Staphylococcus aureus 32 (MRSA 32), Methicilin resistant Staphylococcus epidermidis 118 (MRSE 118), Vancomycin resistant enterococci 303 (VRE 303) in Tryptic Soya broth were diluted in Mueller Hinton Broth to give optical density matching with MacFarland tube 0.5 standard. Cultures were further diluted 1:10 in Mueller Hinton broth. Using Denley's multipoint inoculator, 10^4 cells were deposited on Mueller Hinton agar (Difco) containing range of 2 fold dilutions of test compounds. These plates were incubated for 24 hrs at 35° C. and MIC results recorded. MIC is defined as minimum drug concentration that inhibits test organisms. For determining MIC of test compounds against Streptococcus pneumoniae 49619 (SPN 49619) and Streptococcus pyogenes 801 (SPY 801), Mueller Hinton agar containing 5% sheep blood was employed.

[2] = test system: Methicilin resistant Staphylococcus epidermidis 118 (MRSE 118); assay: as above; assay type: cell-based; conditions: Mueller Hinton agar, 24 hrs at 35° C.
Procedure: as §1

[3] = test system: Vancomycin resistant enterococci 303 (VRE 303); assay: as above; assay type: cell-based; conditions: Enterococcus, Mueller Hinton agar, 24 hrs at 35° C.
Procedure: as §1

[4] = test system: Streptococcus pneumoniae 49619 (SPN 49619); assay: Minimum Inhibitory Concentration (MIC) determination, agar with 5% sheep blood; assay type: cell-based; conditions: Mueller Hinton agar containing 5% sheep blood
Procedure: as §1

[5] = test system: Streptococcus pyogenes 801 (SPY 801); assay: as above; assay type: cell-based; conditions: Mueller Hinton agar containing 5% sheep blood
Procedure: as §1

[6] = test system: methicillin resistant Staphylococcus aureus strain MRSA 32; assay: Murine Assay Procedure (in vivo efficacy, MRSA 32 infection); conditions: swiss mice infected intraperitoneally with MRSA 32, oral gavage 1 h after infection, repeat dose 3 hrs later, percentage survival on Day 7
Procedure: Oxazolidinone new chemical entities (NCEs) were evaluated for their in vivo efficacy in a murine infection caused by multi-drug resistant, methicillin resistant Staphylococcus aureus strain, referred to as MRSA 32, a clinical isolate obtained from a hospitalized patient. The procedure used for the murine assay is as follows:
Four weeks old swiss mice of 18-22 gm body weight were infected with MRSA 32 strain suspended in 5% Hog gastric mucin. The infecting dose of bacteria was set at 1-2×10^8 CFU/animal. The infecting dose was administered in 0.5 ml volume injected into peritonial cavity of mice. The treatment with oxazolidinone NCEs was started one hour after infection by administering 100-200 μl of the suspensions of oxazolidinone compounds in 5% Tween 80 by oral gavage. A repeat dose was similarly administered 3 hrs later. Each oxazolidinone NCE was tested at 2-3 different dosages in the range of 2.5 mg/kg to 20 mg/kg. In each dose group 6 mice were included. As an infection control group 12 mice were infected with MRSA 32 strain without giving any treatment. For compounds affording protection of MRSA infected mice, ED50 dosages were calculated on the basis of percentage survival on Day 7 after infection.

| MIC [1] [µg/mL] | MIC [2] [µg/mL] | MIC [3] [µg/mL] | MIC [4] [µg/mL] | MIC [5] [µg/mL] | SMILES | ED50 [6] [mg/kg] |
| --- | --- | --- | --- | --- | --- | --- |
| 1 (≈ 2.17 µM) | 0.5 (≈ 1.09 µM) | 2 (≈ 4.34 µM) | 1 (≈ 2.17 µM) | 1 (≈ 2.17 µM) | CC(=O)NC[C@H]1CN(c2ccc(N3CCC(F)(CNS(C)(=O)=O)CC3)c(F)c2)C(=O)O1 [Example 7, (S)—N-{3-[4-(4-Fluoro-4-methanesulfonamidomethylpiperidin-1-yl)-3-fluorophenyl]-2-oxo-oxazolidin-5-ylmethyl}-acetamide] | 5 |
| 4 (≈ 9.72 µM) | 2 (≈ 4.86 µM) | 4 (≈ 9.72 µM) | 2 (≈ 4.86 µM) | 2 (≈ 4.86 µM) | CC(=O)NC[C@H]1CN(c2cc(F)c(N3CCC4(CC3)OCCO4)c(F)c2)C(=O)O1 [Example 130, (S)—N-{3-[4-(1,4-dioxa-8-aza-spiro[4.5]dec-8-yl)-3,5-difluorophenyl]-2-oxo-oxazolidin-5-ylmethyl}-acetamide] | 5 |
| 4 (≈ 9.82 µM) | 1 (≈ 2.45 µM) | 8 (≈ 19.6 µM) | 4 (≈ 9.82 µM) | 4 (≈ 9.82 µM) | CC(=O)NC[C@H]1CN(c2ccc(N3CCC4(CC3)COCCO4)c(F)c2)C(=O)O1 [Example 160, (S)—N-{3-[4-(1,4-dioxa-9-aza-spiro[5.5]undec-9-yl)-3-fluorophenyl]-2-oxo-oxazolidin-5-ylmethyl}-acetamide] | 10 |
| 2 (≈ 4.92 µM) | 2 (≈ 4.92 µM) | 4 (≈ 9.84 µM) | 2 (≈ 4.92 µM) | 4 (≈ 9.84 µM) | CS(=O)(=O)OC[C@H]1CN(c2cc(F)c(N3CCC(O)CC3)c(F)c2)C(=O)O1 [Example 173, (R)—N-{3-[4-(4-hydroxy-piperidin-1-yl)-3,5-difluorophenyl]-2-oxo-oxazolidin-5-ylmethyl}-methanesulfonate] | 5 |
| 4 (≈ 8.92 µM) | 2 (≈ 4.46 µM) | 4 (≈ 8.92 µM) | 4 (≈ 8.92 µM) | 4 (≈ 8.92 µM) | CS(=O)(=O)OC[C@H]1CN(c2cc(F)c(N3CCC4(CC3)OCCO4)c(F)c2)C(=O)O1 [Example 146, (R)—N-{3-[4-(1,4-dioxa-8-aza-spiro[4.5]dec-8-yl)-3,5-difluorophenyl]-2-oxo-oxazolidin-5-ylmethyl}-methanesulfonate] | 2.5 |
| 2 (≈ 5.18 µM) | 1 (≈ 2.59 µM) | 2 (≈ 5.18 µM) | 1 (≈ 2.59 µM) | 1 (≈ 2.59 µM) | CC(=O)NC[C@H]1CN(c2ccc(N3CCC4(CC3)C[C@H]4C#N)c(F)c2)C(=O)O1 [Example 98, (1R,5S)—N-{3-[4-(1-cyano-6-aza-spiro[2.5]oct-6-yl)-3-fluorophenyl]-2-oxo-oxazolidin-5-ylmethyl}-acetamide] | 5 |
| 4 (≈ 10.4 µM) | 2 (≈ 5.18 µM) | 4 (≈ 10.4 µM) | 4 (≈ 10.4 µM) | 4 (≈ 10.4 µM) | CS(=O)(=O)OC[C@H]1CN(c2ccc(N3CCC(=O)CC3)c(F)c2)C(=O)O1 [Example 168, (R)—N-{3-[4-(4-oxo-piperidin-1-yl)-3-fluorophenyl]-2-oxo-oxazolidin-5-ylmethyl}-methanesulfonate] | 10 |
| 4 (≈ 10.2 µM) | 1 (≈ 2.56 µM) | 4 (≈ 10.2 µM) | 1 (≈ 2.56 µM) | 1 (≈ 2.56 µM) | CC(=O)NC[C@H]1CN(c2ccc(N3CCC(O)(CC#N)CC3)c(F)c2)C(=O)O1 [Example 21, (S)—N-{3-[4-(4-Cyanomethyl-4-hydroxypiperidin-1-yl)-3-fluorophenyl]-2-oxo-oxazolidin-5-ylmethyl}-acetamide] | 2.5 |
| 4 (≈ 9.47 µM) | 1 (≈ 2.37 µM) | 4 (≈ 9.47 µM) | 2 (≈ 4.73 µM) | 2 (≈ 4.73 µM) | CC(=O)NC[C@H]1CN(c2ccc(N3CCC4(CC3)SCCN4C)c(F)c2)C(=O)O1 [Example 113, (S)—N-{3-[4-(8-aza-1-thia-4-(N-methyl)-spiro[4.5]dec-8-yl)-3-fluorophenyl]-2-oxo-oxazolidin-5-ylmethyl}-acetamide] | 10 |
| 1 (≈ 2.43 µM) | 0.5 (≈ 1.22 µM) | 4 (≈ 9.72 µM) | 2 (≈ 4.86 µM) | 4 (≈ 9.72 µM) | CCOCC1(F)CCN(c2ccc(N3C[C@H](CNC(C)=O)OC3=O)cc2F)CC1 [Example 11, (S)—N-{3-[4-(4-Fluoro-4-ethoxymethylpiperidin-1-yl)-3-fluorophenyl]-2-oxo-oxazolidin-5-ylmethyl}-acetamide] | 10 |
| 2 (≈ 5.93 µM) | 1 (≈ 2.96 µM) | 2 (≈ 5.93 µM) | 2 (≈ 5.93 µM) | 2 (≈ 5.93 µM) | CC(=O)NC[C@H]1CN(c2ccc(N3CCOCC3)c(F)c2)C(=O)O1 [Linezolid, reference compound] | 5 |
| 4 | 2 | 8 | 4 | 4 | CC(=O)NC[C@H]1CN(c2ccc(N3CCC4(CC3)CC4C#N)cc2)C(=O)O1 (mixture of isomers) [Example 96, (1RS,5S)—N-{3-[4-(1-cyano-6-aza-spiro[2.5]oct-6-yl)-phenyl]-2-oxo-oxazolidin-5-ylmethyl}-acetamide] | 5 |
| 4 (≈ 10.3 µM) | 2 (≈ 5.15 µM) | 8 (≈ 20.6 µM) | 4 (≈ 10.3 µM) | 4 (≈ 10.3 µM) | CC(=O)NC[C@H]1CN(c2ccc(N3CCC(O)(CN=[N+]=[N-])CC3)cc2)C(=O)O1 [Example 178, (S)—N-{3-[4-(4-azidomethyl-4-hydroxy-piperidin-1-yl)-phenyl]-2-oxo-oxazolidin-5-ylmethyl}-acetamide] | 10 |
